According to publication PMC9071858, “Comparative Pharmacokinetics of Seven Major Compounds in Normal and Atherosclerosis Mice after Oral Administration of Simiao Yong'an Decoction” (Evidence-based Complementary and Alternative Medicine : eCAM, 2022):

Assays:
[1] = Pharmacokinetic study in normal control (NC) mice after oral administration of SMYAD; format: in vivo, mouse; settings: NC mice, plasma, SMYAD intragastric 35 g/kg/d for seven days, mean ± SD, n = 5; for AUC(0-t) / AUC(0-inf) / Cmax / half-life / Tmax: male, C57BL/6J, mouse, po, 35 g/kg/day; for AUC(0-t): read-out: AUC0–t; for AUC(0-inf): read-out: AUC0–∞; for Cmax: read-out: C max; for half-life: read-out: t 1/2 (converted); for Tmax: read-out: t max
Procedure: (§1) Male C57BL/6J mice and ApoE^−/− mice on a C57BL/6 background (7 weeks old, 18–22 g) were purchased from Beijing Vital River Laboratory Animal Technology Co., Ltd. (Beijing, China, Certificate No.: SCXK (Jing) 2016-0006). All the mice were kept in an SPF animal house (Dongzhimen Hospital Affiliated to Beijing University of Chinese Medicine, Certificate No.: SYXK (Jing) 2015-0001) with food and water freely available, 12 h light/dark, and environmental conditions of 22°C–24°C, 50% relative humidity. All protocols of animal experiments were performed in accordance with the National Guidelines for Laboratory Animal Welfare and were approved by the Animal Ethics Committee of Beijing University of Chinese Medicine (NO. BUCM-4-2015071701-3001). High-fat feeding (containing 15% fat and 0.25% cholesterol) was provided by Beijing HFK bioscience CO., LTD. (Beijing, China, Certificate No.: SCXK (Jing) 2014-0018).
(§2) After successful induction of AS model, SMYAD was administered to NC and AS mice by intragastric gavage at the crude drug dose of 35 g/kg/d for seven days. Blood samples were collected from each mouse in heparinized tubes via the postorbital venous plexus veins at 0, 0.25, 0.5, 1, 2, 4, 6, 8, 10, 12, 18, and 24 h after seven days of drug administration. Then blood samples were immediately centrifuged at 3500 rpm at 4°C for 10 min and the plasma was stored at −80°C until use.
(§3) Each plasma sample (100 μL) was mixed with a threefold volume of methanol and 25 μL IS in a 1.5 mL EP tube. Then the mixture was vortexed for 100 seconds and centrifuged at 12,000 rpm for 10 min at 4°C. The supernatant was transferred to another EP tube and evaporated to dryness under a nitrogen vacuum. The residue was reconstituted with 100 μL of 50% methanol and centrifuged at 15,000 rpm for 15 min. Then the supernatant was transferred to sample vials for the LC-MS analysis.
(§4) A Vanquish UHPLC™ system (Thermo Fisher Scientific Inc., USA) was used for the analysis. Samples were separated on an Atlantis T3 column (4.6 mm × 150 mm, 3 μm; Waters, USA). The column temperature was 40°C. The mobile phase, at 0.4 mL/min, consisted of water containing 0.1% formic acid (v/v, A) and methanol (B). The quantitative analysis gradient program was as follows: 0-1 min, 0 B; 1–6 min, 0–100% B; 6–12 min, 100% B; 12–12.1 min, 100%-0 B; 12.1–15 min, 0 B. The injection volume was 5 μL.
(§5) The mass spectrometer Q Exactive HF-X (Thermo Fisher Scientific Inc., USA) system was connected to the UHPLC system via heated electrospray ionization (HESI) and controlled by Xcalibur 4.2 software (Thermo Fisher) that was used for data collection and analysis. The mass spectrometer was operated in a negative ionization mode. The MS parameters were set as follows: probe heater temperature, 350°C; capillary temperature: 320°C; sheath gas (N2) flow rate: 30 arbs; auxiliary gas (N2) flow rate: 10 arbs; spray voltage: 3.2 kV (negative); S-Lens RF level: 55 V; scan mode: full MS (resolution 12000); scan range: m/z 150–1500. The most abundant ions in the spectra were selected for sensitive quantitation ([M-H]^−of chlorogenic acid, angoroside C, liquiritin, isoliquiritigenin, and IS, [M + COOH]^− of harpagide, swertiamarin, and sweroside).
The pharmacokinetic parameters, including maximum plasma concentration (Cmax), time corresponding to Cmax (Tmax), terminal elimination half-life (T1/2), area under plasma concentration-time curve (AUC0–t) and area under the plasma concentration-time curve from 0 to infinity time (AUC0–∞), apparent volume of distribution (Vz/F) and clearance (CLz/F), were calculated using the noncompartment model in DAS 2.0 software package (Shanghai, China). GraphPad prism 6.02 (GraphPad Software, USA) was used in the statistical analysis. All values are expressed as mean ± standard error. For the pharmacokinetic parameter values of the NC and AS groups, Student's t-test was employed for data comparisons. P values <0.05 were considered statistically significant.

[2] = Pharmacokinetic study in atherosclerosis (AS) model ApoE−/− mice after oral administration of SMYAD; format: in vivo, mouse; settings: AS mice, plasma, SMYAD intragastric 35 g/kg/d for seven days, mean ± SD, n = 5; for AUC(0-t) / AUC(0-inf) / Cmax / half-life / Tmax: male, ApoE−/− on a C57BL/6 background, mouse, po, 35 g/kg/day; for AUC(0-t): read-out: AUC0–t; for AUC(0-inf): read-out: AUC0–∞; for Cmax: read-out: C max; for half-life: read-out: t 1/2 (converted); for Tmax: read-out: t max
Procedure: as §1
The AS model was established by a high-fat diet and perivascular carotid collar placement (PCCP) surgery in the ApoE^−/− mice. After a 7-day adaptive feeding, the mice were given a high-fat diet for 2 weeks; before anesthesia, all ApoE^−/− mice were fasted for 12 hours. During the surgery, the right common carotid artery was exposed, and a silicone cannula (length: 2.5 mm, inner diameter: 0.3 mm) was fixed around the carotid artery (external diameter: about 0.5 mm). Penicillin was injected intraperitoneally for 3 days after surgery to prevent infection. High-fat diet continued for 8 weeks after surgery to establish AS model. Biochemical assays and hematoxylin and eosin (HE) staining were used to evaluate whether AS model was successfully established.
as §2, §3, §4
as §5, with “sweroside). […]” for “sweroside).”

[3] = Stability of analytes in QC plasma samples; format: in vitro ADME, mouse; settings: n = 5
Procedure: All solutions were stored at 4°C.
Stability was evaluated as five replicate QC samples at two concentration levels (see Table 5).

[4] = high QC level (600 harpagide, 800 chlorogenic acid, 4800 swertiamarin, 1000 sweroside, 200 others ng/ml)
[5] = low QC level ([…] harpagide, 51.2 chlorogenic acid, 307.2 swertiamarin, 64 sweroside, 12.8 others ng/ml)

CLz/F [1] [L/h/mg]	Vz/F [1] [L/mg]	AUC(0-t) [1] [ng·h/mL]	AUC(0-inf) [1] [ng·h/mL]	Cmax [1] [ng/mL]	half-life [1] [min]	Tmax [1] [h]	CLz/F [2] [L/h/mg]	Vz/F [2] [L/mg]	AUC(0-t) [2] [ng·h/mL]	AUC(0-inf) [2] [ng·h/mL]	Cmax [2] [ng/mL]	half-life [2] [min]	Tmax [2] [h]	Freeze-thaw stability 3 freeze-thaw cycles Accuracy RE [3, 4] [%]	Freeze-thaw stability 3 freeze-thaw cycles Calc. conc. [3, 4] [ng/mL]	Long-term stability −20°C for 30 d Accuracy RE [3, 4] [%]	Long-term stability −20°C for 30 d Calc. conc. [3, 4] [ng/mL]	Postpreparative stability 24 h in the autosampler (4°C) Accuracy RE [3, 4] [%]	Postpreparative stability 24 h in the autosampler (4°C) Calc. conc. [3, 4] [ng/mL]	Compound	further results
29.75 ± 24.10	148.22 ± 76.23	1730 ± 883	1870 ± 1050	289 ± 124	444 ± 286	0.85 ± 0.62	18.79 ± 2.39	126.00 ± 102.72	1840 ± 298	1890 ± 226	491 ± 239	440 ± 281	2.05 ± 1.19	−1.74	196.52 ± 13.15	−10.51	178.97 ± 6.04	−7.27	185.46 ± 9.39	COc1ccc(CCO[C@@H]2O[C@H](CO[C@@H]3OC[C@H](O)[C@H](O)[C@H]3O)[C@@H](OC(=O)/C=C/c3ccc(O)c(OC)c3)[C@H](O[C@@H]3O[C@@H](C)[C@H](O)[C@@H](O)[C@H]3O)[C@H]2O)cc1O [Angoroside C, angoroside C]	Short-term stability 24 h in room temperature (20°C) Accuracy RE [3, 4]: 1.92%; Short-term stability 24 h in room temperature (20°C) Calc. conc. [3, 4]: 203.84 ± 4.39 ng/mL; Freeze-thaw stability 3 freeze-thaw cycles Accuracy RE [3, 5]: 5.68%; Freeze-thaw stability 3 freeze-thaw cycles Calc. conc. [3, 5]: 13.53 ± 0.98 ng/mL; Long-term stability −20°C for 30 d Accuracy RE [3, 5]: 1.73%; Long-term stability −20°C for 30 d Calc. conc. [3, 5]: 13.02 ± 1.17 ng/mL; Postpreparative stability 24 h in the autosampler (4°C) Accuracy RE [3, 5]: 1.70%; Postpreparative stability 24 h in the autosampler (4°C) Calc. conc. [3, 5]: 13.02 ± 1.05 ng/mL; Short-term stability 24 h in room temperature (20°C) Accuracy RE [3, 5]: 4.09%; Short-term stability 24 h in room temperature (20°C) Calc. conc. [3, 5]: 13.32 ± 1.09 ng/mL
5.82 ± 2.64	20.82 ± 11.26	5350 ± 1180	5400 ± 1240	1430 ± 636	266 ± 124	5 ± 4.97	5.70 ± 1.93	55.16 ± 45.04	5540 ± 2010	7240 ± 3390	1340 ± 603	344 ± 114	0.9 ± 0.64	7.37	5153.93 ± 132.15	0.75	4835.93 ± 153.29	3.51	4968.64 ± 208.19	C=C[C@H]1[C@H](O[C@@H]2O[C@H](CO)[C@@H](O)[C@H](O)[C@H]2O)OC=C2C(=O)OCC[C@]21O [Swertiamarin, swertiamarin]	Short-term stability 24 h in room temperature (20°C) Accuracy RE [3, 4]: 9.88%; Short-term stability 24 h in room temperature (20°C) Calc. conc. [3, 4]: 5274.04 ± 147.92 ng/mL; Freeze-thaw stability 3 freeze-thaw cycles Accuracy RE [3, 5]: −5.86%; Freeze-thaw stability 3 freeze-thaw cycles Calc. conc. [3, 5]: 289.21 ± 13.27 ng/mL; Long-term stability −20°C for 30 d Accuracy RE [3, 5]: 1.41%; Long-term stability −20°C for 30 d Calc. conc. [3, 5]: 311.53 ± 14.38 ng/mL; Postpreparative stability 24 h in the autosampler (4°C) Accuracy RE [3, 5]: −4.67%; Postpreparative stability 24 h in the autosampler (4°C) Calc. conc. [3, 5]: 292.85 ± 19.45 ng/mL; Short-term stability 24 h in room temperature (20°C) Accuracy RE [3, 5]: −8.88%; Short-term stability 24 h in room temperature (20°C) Calc. conc. [3, 5]: 279.92 ± 15.61 ng/mL
